Assay [1] relates to GBS DK23. Kind of assay: MBC determination. Type of assay: cell-based, group B Streptococcus. As to conditions: Streptococcus, 3-log reduction, 24 hour, 37° C., half strength MHB in PBS. The procedure: To determine MBC, bacteria were cultured in TSB (Staphylococcus), THB (Streptococcus) or Nutrient broth (P. aeruginosa and E. coli) by reaching exponential phase (OD600=0.5-0.8). […] After incubation, the number of viable bacteria was measured by counting CFU after spreading 10-fold serial dilutions of bacteria on suitable agar plates. MBC was determined as a 3-log reduction (99.9%) of viable bacteria after 24 hour incubation.
Antimicrobial activity of 6-HAP in vitro. To examine the specificity of 6-HAP for various bacteria, minimal bactericidal concentrations (MBCs) were determined according to dose-dependent killing curves at 24 hrs of incubation in vitro (Table 1). 6-HAP killed or suppressed growth of several major skin pathogens including GAS (NZ131), group B Streptococcus (GBS) (DK23), methicillin-sensitive S. aureus (ATCC35556), methicillin-resistant S. aureus (MRSA) strains (USA300 and Sanger252), Pseudomonas aeruginosa (P. aeruginosa) (ATCC14213) in vitro. […] S. epidermidis (ATCC12228) was also resistant to 6-HAP.

Assay [2] deals with Pam212 squamous cell carcinoma. The experiment in a line: Cell proliferation assay (BrdU incorporation). As to conditions: Pam212, 4-hr incubation. Format: cell-based, mouse. On the procedure: (a-b) Selective antiproliferative activity of 6-HAP against Pam212 squamous cell carcinoma, but not against normal keratinocytes. BrdU incorporation into Pam212 cells (b) or NHEKs (b) after 4-hr or 24-hr incubation, respectively, in suitable media containing indicated concentrations of 6-HAP or mitomycin C (10 μg/mL) (a). (c) Expression of mARC1 and mARC2 in NHEKs, squamous cell carcinoma (Pam212), melanoma (B16F10) and lymphoma cell lines (L5178). To compare relative expression level in each cells, data was shown as relative to GAPDH expression. (d) Expression of mARC1 and mARC2 in NHEKs treated with control siRNA, mARCI siRNA and mARC2 siRNA. (e) Effect of gene silencing with mARC1 and mARC2 siRNA on sensitivity to 6-HAP in NHEKs. NHEKs treated with each siRNA were incubated for 48 hrs and then incubated with 10 μg/mL of 6-HAP for 24 hrs.
Cell culture and cell proliferation assay. B16F10 mouse melanoma, Pam212, L5178 and YAC-1 mouse […] cell lines were obtained from American Type Culture Collection. […] After 4-hr (tumor cell lines) or 24-hr (NHEK) incubation with 6-HAP, proliferative activity of cells was colorimetrically determined by monitoring BrdU incorporation with Cell Proliferation kit according to the manual (Roche).
(Uptake of a labelled nucleoside into DNA is a usual measure of proliferation.)

In assay [3] the test system is M. luteus ATCC4698. The experiment in a line: MBC determination. Format: cell-based. The settings on record: Micrococcus luteus, 3-log reduction, 24 hour, 37° C., half strength MHB in PBS.
Assay [4] deals with Klenow fragment (exo) DNA polymerase. The experiment in a line: In vitro DNA polymerization assay. Format: biochemical. As to conditions: cell free system, in the presence of 6-HAP. The procedure: (a) Time course killing of GAS in THB containing 6-HAP (25 μg/mL), mitomycin C (5 μg/mL), or LL-37 (10 μM). At each indicated time point, live GAS in the media was measured by counting CFU on an agar plate. The data represent mean±SE of four individual experiments. (b) Membrane permeability of GAS incubated in THB containing 6-HAP (25 μg/mL), mitomycin C (5 μg/mL) and LL-37 (10 μM) for 1 hr. The bacteria with compromised plasma membranes (Red) can be distinguished from those with intact membranes (Green). (c) BrdU incorporation into nascent DNA of GAS after incubation with 6-HAP (25 μg/mL) or mitomycin C (5 μg/mL) in THB containing BrdU (10 μM) for 30 or 60 min. (d) BrdU incorporation into nascent DNA of S. epidermidis ATCC12228 after incubation with 6-HAP (25 μg/mL) or mitomycin C (5 μg/mL) in THB containing BrdU (10 μM) for 60 min. […] Extension reaction was analyzed on a 20% acrylamide gel by electrophoresis (f). […] GAS survival was measured by counting CFU. […]
In vitro DNA polymerization assay. […] Fluorescence was visualized with Oddyssey Imaging System (LI-COR Biosciences, Lincoln, NE).
We next assessed the effect of 6-HAP on DNA synthesis. […] To directly examine the action of 6-HAP on DNA extension in a cell free system, 25-bp templates and matching 18-bp fluorescence primers were designed to measure DNA extension in vitro by Klenow (exo) DNA polymerase (FIG. 4e).

Molecules are shown by their SMILES. Converted amounts (≈) assume the structure as drawn.

One may read the MBC as the lowest tested concentration that kills the bacteria rather than only halting them. Higher therefore signals weaker bactericidal potency. In the case of `ONc1ncnc2nc[nH]c12` [6-HAP, 6-N-hydroxyaminopurine], the MBC in assay [1] was found to be 0.781 µg/mL (≈ 5.17 µM); in assay [3], 12.5 µg/mL (≈ 82.7 µM). Further, in assay [2], the BrdU incorporation result is recorded as “inhibited”. Also, in assay [4], the “DNA extension, template requiring adenosine (X=T)” value is “lack of extension”. The “DNA extension, template requiring cytosine (X=G)” value in assay [4] was “synthesis of the expected extended DNA product”.

(Values after patent publication US12427151B2, “Compositions and method of treating cancer” (The Regents of the University of California, priority 2017, dated 2025).)
